Source: ChEMBL document CHEMBL1142681, “Three-dimensional structure-activity relationships of nonsteroidal ligands in complex with androgen receptor ligand-binding domain” (J Med Chem, 2005)

These molecules were tested against T1, Androgen receptor (Rattus norvegicus, UniProt P15207).
T1 sequence (P15207 whole entry): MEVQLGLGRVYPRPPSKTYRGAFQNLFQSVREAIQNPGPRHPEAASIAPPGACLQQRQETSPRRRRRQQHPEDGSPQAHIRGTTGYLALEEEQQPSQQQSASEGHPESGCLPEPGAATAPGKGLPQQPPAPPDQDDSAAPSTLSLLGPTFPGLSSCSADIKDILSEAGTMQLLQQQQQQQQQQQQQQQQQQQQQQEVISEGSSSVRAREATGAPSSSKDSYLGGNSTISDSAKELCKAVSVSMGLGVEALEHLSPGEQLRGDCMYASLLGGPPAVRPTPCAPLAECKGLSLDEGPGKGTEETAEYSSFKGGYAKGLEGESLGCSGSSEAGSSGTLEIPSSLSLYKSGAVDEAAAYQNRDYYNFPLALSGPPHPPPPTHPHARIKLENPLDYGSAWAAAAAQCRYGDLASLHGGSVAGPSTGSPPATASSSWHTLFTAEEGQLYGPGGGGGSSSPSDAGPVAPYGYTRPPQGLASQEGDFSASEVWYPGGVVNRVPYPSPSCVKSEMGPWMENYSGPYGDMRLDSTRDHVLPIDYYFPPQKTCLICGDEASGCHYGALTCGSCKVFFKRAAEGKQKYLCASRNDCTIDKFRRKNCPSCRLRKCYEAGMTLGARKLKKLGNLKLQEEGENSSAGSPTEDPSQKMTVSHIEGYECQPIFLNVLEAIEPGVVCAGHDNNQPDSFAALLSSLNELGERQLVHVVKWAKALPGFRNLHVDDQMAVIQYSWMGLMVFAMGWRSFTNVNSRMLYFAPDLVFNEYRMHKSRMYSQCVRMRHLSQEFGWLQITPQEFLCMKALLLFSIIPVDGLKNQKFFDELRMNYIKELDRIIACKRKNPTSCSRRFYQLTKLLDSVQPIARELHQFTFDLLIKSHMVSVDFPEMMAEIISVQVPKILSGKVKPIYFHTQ
Description: Inhibition of [3H]mibolerone binding to cytosolic androgen receptor of rat ventral prostate
Molecule `C[C@](O)(CSc1ccc(NC(=O)C(F)(F)F)cc1)C(=O)Nc1ccc([N+](=O)[O-])c(C(F)(F)F)c1` has a Ki of 2.57 nM.
For `CCC(=O)Nc1ccc(SC[C@](C)(O)C(=O)Nc2ccc(C#N)c(C(F)(F)F)c2)cc1`, the Ki was 26.9 nM.
`CC(=O)Nc1ccc(SC[C@](C)(O)C(=O)Nc2ccc([N+](=O)[O-])c(C(F)(F)F)c2)cc1` was tested, and the Ki was 2.88 nM.
In the case of `C[C@@](O)(CS(=O)(=O)c1ccc(NC(=O)CCl)cc1)C(=O)Nc1ccc([N+](=O)[O-])c(C(F)(F)F)c1`, the Ki is reported as 234 nM.
Molecule `CC(=O)Nc1ccc(SC[C@](C)(O)C(=O)Nc2ccc(C#N)c(C(F)(F)F)c2)cc1` [ACETOTHIOLUTAMIDE] has a Ki of 4.9 nM.
`C[C@](O)(CSc1ccc(N=C=S)cc1)C(=O)Nc1ccc2c(C(F)(F)F)cc(=O)oc2c1` gave a Ki of 135 nM.
For `C[C@](O)(CSc1ccc(NS(C)(=O)=O)cc1)C(=O)Nc1ccc([N+](=O)[O-])c(C(F)(F)F)c1`, the Ki was 50.1 nM.
`C[C@@](O)(CSc1ccc(NC(=O)CCl)cc1)C(=O)Nc1ccc([N+](=O)[O-])c(C(F)(F)F)c1` showed a Ki of 97.7 nM.
Molecule `C[C@](O)(CSc1ccc(N)cc1)C(=O)Nc1ccc2c(C(F)(F)F)cc(=O)oc2c1` has a Ki of 288 nM.
With `C[C@](O)(CS(=O)(=O)c1ccc(NS(C)(=O)=O)cc1)C(=O)Nc1ccc([N+](=O)[O-])c(C(F)(F)F)c1` the Ki was 15.1 nM.
In the case of `CC(=O)Nc1ccc(S(=O)(=O)C[C@](C)(O)C(=O)Nc2ccc(C#N)c(C(F)(F)F)c2)cc1`, the Ki is reported as 15.8 nM.
`CC(=O)Nc1ccc(SC[C@@](C)(O)C(=O)Nc2ccc([N+](=O)[O-])c(C(F)(F)F)c2)cc1` was tested, and the Ki was 123 nM.
For `C[C@@](O)(CSc1ccc(N)cc1)C(=O)Nc1ccc([N+](=O)[O-])c(C(F)(F)F)c1`, the Ki was 525 nM.
Work on `CC(=O)N(C(C)=O)c1ccc(SC[C@](C)(O)C(=O)Nc2ccc(C#N)c(C(F)(F)F)c2)cc1` yielded a Ki of 105 nM.
`C[C@](O)(CS(=O)(=O)c1ccc(N)cc1)C(=O)Nc1ccc(C#N)c(C(F)(F)F)c1` gave a Ki of 32.4 nM.
Molecule `C[C@](O)(CBr)C(=O)Nc1ccc([N+](=O)[O-])cc1[N+](=O)[O-]` has a Ki of 1170 nM.
With `Cc1cc(=O)oc2cc(NC(=O)[C@@](C)(O)CSc3ccc(F)cc3)ccc12` the Ki was 91.2 nM.
In the case of `C[C@](O)(CSc1ccc(N)cc1)C(=O)Nc1ccc([N+](=O)[O-])c(C(F)(F)F)c1`, the Ki is reported as 57.5 nM.
`C[C@](O)(CS(=O)(=O)c1ccc(NC(=O)CCl)cc1)C(=O)Nc1ccc([N+](=O)[O-])c(C(F)(F)F)c1` showed a Ki of 6.92 nM.
Molecule `C[C@](O)(CBr)C(=O)Nc1ccc2c(C(F)(F)F)cc(=O)oc2c1` has a Ki of 132 nM.
`C[C@](O)(CBr)C(=O)Nc1ccc(N)c(C(F)(F)F)c1` gave a Ki of 81.3 nM.
Work on `C[C@](O)(CBr)C(=O)Nc1ccc([N+](=O)[O-])cc1` yielded a Ki of 33.1 nM.
For `C[C@](O)(CSc1ccc(NC(=O)CCl)cc1)C(=O)Nc1ccc([N+](=O)[O-])c(C(F)(F)F)c1`, the Ki was 3.31 nM.
Work on `C[C@](O)(CS(=O)(=O)c1ccc(NC(=O)C(F)(F)F)cc1)C(=O)Nc1ccc([N+](=O)[O-])c(C(F)(F)F)c1` yielded a Ki of 6.17 nM.
With `CCC(=O)N(C(=O)CC)c1ccc(SC[C@](C)(O)C(=O)Nc2ccc(C#N)c(C(F)(F)F)c2)cc1` the Ki was 661 nM.
Work on `C[C@](O)(CSc1ccccc1)C(=O)Nc1ccc2c(C(F)(F)F)cc(=O)oc2c1` yielded a Ki of 132 nM.
Work on `CC(=O)Nc1ccc(SC[C@@](C)(O)C(=O)Nc2ccc(C#N)c(C(F)(F)F)c2)cc1` yielded a Ki of 1380 nM.
Molecule `CC(=O)Nc1ccc(S(=O)(=O)C[C@@](C)(O)C(=O)Nc2ccc([N+](=O)[O-])c(C(F)(F)F)c2)cc1` has a Ki of 589 nM.
`C[C@@](O)(CBr)C(=O)Nc1ccc2c(C(F)(F)F)cc(=O)oc2c1` was tested, and the Ki was 245 nM.
